# Measured values taken from article PMC10374545, “A small molecule inhibitor of PTP1B and PTPN2 enhances T cell anti-tumor immunity” (Nature Communications, 2023).
# Several values for one entry are separate records, joined by “and”; a condition that tells them apart may be missing. Identical values can stand only once.
# Key:
# AT3-OVA mammary tumors = experiment: AT3-OVA mammary tumor growth in C57BL/6 mice; type: in vivo, mouse; design: Tumour weights, individual mice: unit not given here; conditions: for Tumour growth, individual mice: Figure 5A; for Tumour growth, single mice: sizes in mm^2, Fig. 3A, listed as CMP-182, 10 mg/kg
# Method: Male or female mice were injected subcutaneously with 5 × 10^5 MC38 tumor cells resuspended in 100 μl D-PBS into the flank. Alternatively, female mice were injected orthotopically with 5 × 10^5 AT3 or AT3-OVA or PTPN2-deleted AT3 or AT3-OVA tumor cells resuspended in 20 μl D-PBS into the fourth mammary fat pad. Tumor sizes were measured in two dimensions (mm^2) using electronic callipers two to three times per week as soon as tumors were palpable (20–25 mm^2).
# [1] = Histology of liver, lungs, salivary glands, colon (H&E, Sirius Red); type: in vivo, mouse; conditions: 10 mg/kg i.v.
# SHP-1 = target: T1, SHP-1 (Homo sapiens, UniProt P29350); experiment: PTP selectivity, DiFMUP assay; type: biochemical; conditions: DiFMUP at Km
# T1 construct: SHP-1, residues 245-543; made in house; host or cells: E. coli BL21(DE3)
# Method: (§1) E. coli BL21(DE3) (Novagen) was used as an expression host and the induction of protein expression was carried out in LB media with 1 mM IPTG at 18 °C overnight. Cell pellets were stored at −80 °C for subsequent protein purification.
# (§2) Protein purification of PTPs for enzymatic assays was conducted at 4 °C. Frozen cell pellets were lysed by sonication in 40 ml cold lysis buffer (50 mM Tris-HCl, pH 8.0, 150 mM NaCl, 5 mM imidazole, and 1 mM PMSF) per litre cell pellet. Cell lysates were clarified by centrifugation using a Beckman JA-18 rotor for 15 min at 5308 x g. The supernatant was incubated with HisPur Ni-NTA resin (Thermo Scientific) for 2 h and then packed onto a column and washed with 50 resin volume of buffer A (50 mM Tris-HCl, pH 8.0, 500 mM NaCl, 5 mM imidazole). The His-tagged proteins were eluted with Buffer B (50 mM Tris-HCl, pH=8.0, 500 mM NaCl, 300 mM imidazole,). Pooled His-protein-containing fractions were concentrated, loaded onto a HiLoad 26/600 Superdex 75 column (GE Healthcare Biosciences) and eluted with storage buffer (50 mM Tris-HCl, pH 8.0, 150 mM NaCl, 1 mM DTT, 10% glycerol). […] The protein was aliquoted and stored at −80 °C.
# (§3) The PTP kinetic assay was modified from previous reported protocols[73],[74]. PTP activity was assayed using 6,8-Difluoro-4-Methylumbelliferyl Phosphate (DiFMUP, Invitrogen, cat# D6567,) as a substrate in 3,3-Dimethylglutaric acid (DMG) buffer (50 mM DMG, pH 7.0, 1 mM EDTA, 18 mM NaCl, 0.01% Triton X-100) at 25 °C. To determine the IC50 values, the assays were performed in 96-well plates (Corning Costar 3915). […] The final reaction volume is 200 µl. The reaction was allowed to proceed for 10 min and then quenched by the addition of 40 µl of a 160 µM solution of bpV(Phen) (Sigma-Aldrich, cat# SML0889). The fluorescence signal was measured using a CLARIOstar Plus Microplate Spectrophotometer (BMG Labtech) using excitation and emission wavelengths of 340 nm and 450 nm, respectively. Data were fitted using Prism GraphPad 9.2.0.
# (§4) To determine the mode of inhibition, the reactions were initiated by the addition of enzyme (final concentration for PTP1B and PTPN2 was 0.05 nM) to the reaction mixtures (0.2 ml) containing various concentrations of DiFMUP with different concentrations of the inhibitor. The reaction was allowed to proceed for 10 min and then quenched by the addition of 40 µl of a 160 µM solution of bpV(Phen) (Sigma-Aldrich, cat# SML0889). The fluorescence signal was measured using a CLARIOstar Plus Microplate Spectrophotometer (BMG Labtech) using excitation and emission wavelength of 340 nm and 450 nm, respectively. Data were fitted using Prism GraphPad 9.2.0. For selectivity studies, the inhibition assay for other PTPs were performed under the same conditions as used for PTP1B and PTPN2 except with different DiFMUP concentration corresponding to the Km of the PTP studied.
# MKP5 = target: T2, MKP5 (Homo sapiens, UniProt Q9Y6W6); experiment: PTP selectivity, DiFMUP assay; type: biochemical; conditions: DiFMUP at Km
# T2 construct: MKP5, residues 320-647; made in house; host or cells: E. coli BL21(DE3)
# Method: as §1, §2, §3, §4
# STEP = target: T3, STEP (Homo sapiens, UniProt P54829); experiment: PTP selectivity, DiFMUP assay; type: biochemical; conditions: DiFMUP at Km
# T3 construct: STEP, residues 258-539; made in house; host or cells: E. coli BL21(DE3)
# Method: as §1, §2, §3, §4
# CDC14B = target: T4, CDC14B (Homo sapiens, UniProt O60729); experiment: PTP selectivity, DiFMUP assay; type: biochemical; conditions: DiFMUP at Km
# T4 construct: CDC14B, residues 1-411; made in house; host or cells: E. coli BL21(DE3)
# Method: as §1, §2, §3, §4
# PTPε = target: T5, PTPε (Homo sapiens, UniProt P23469); experiment: PTP selectivity, DiFMUP assay; type: biochemical; conditions: DiFMUP at Km
# T5 construct: PTPε, residues 107-697; made in house; host or cells: E. coli BL21(DE3)
# Method: as §1, §2, §3, §4
# FAP-1 = target: T6, FAP-1 (Homo sapiens, UniProt Q12923); experiment: PTP selectivity, DiFMUP assay; type: biochemical; conditions: DiFMUP at Km
# T6 construct: FAP1, residues 2124-2485; made in house; host or cells: E. coli BL21(DE3)
# Method: as §1, §2, §3, §4
# PTP-PEST = target: T7, PTP-PEST (Homo sapiens, UniProt Q05209); experiment: PTP selectivity, DiFMUP assay; type: biochemical; conditions: DiFMUP at Km
# T7 construct: PTP-PEST, residues 5-304; made in house; host or cells: E. coli BL21(DE3)
# Method: as §1, §2, §3, §4
# HePTP = target: T8, HePTP (Homo sapiens, UniProt P35236); experiment: PTP selectivity, DiFMUP assay; type: biochemical; conditions: DiFMUP at Km
# T8 construct: HePTP, residues 22-360; made in house; host or cells: E. coli BL21(DE3)
# Method: as §1, §2, §3, §4
# LYP = target: T9, LYP (Homo sapiens, UniProt Q9Y2R2); experiment: PTP selectivity, DiFMUP assay; type: biochemical; conditions: DiFMUP at Km
# T9 construct: LYP/PTPN22, residues 1-294; made in house; host or cells: E. coli BL21(DE3)
# Method: as §1, §2, §3, §4
# T6 sequence (Q12923 2124-2485): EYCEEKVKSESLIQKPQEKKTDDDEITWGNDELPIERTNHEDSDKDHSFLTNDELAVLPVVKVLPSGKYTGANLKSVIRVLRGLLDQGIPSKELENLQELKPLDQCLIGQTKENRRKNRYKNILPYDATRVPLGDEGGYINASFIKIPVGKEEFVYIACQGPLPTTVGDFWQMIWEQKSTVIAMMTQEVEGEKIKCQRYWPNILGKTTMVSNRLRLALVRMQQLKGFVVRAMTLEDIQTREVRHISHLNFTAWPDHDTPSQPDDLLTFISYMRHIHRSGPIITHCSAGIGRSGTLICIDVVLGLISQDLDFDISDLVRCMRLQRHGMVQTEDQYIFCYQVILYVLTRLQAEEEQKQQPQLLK
# T2 sequence (Q9Y6W6 320-467 limits assumed): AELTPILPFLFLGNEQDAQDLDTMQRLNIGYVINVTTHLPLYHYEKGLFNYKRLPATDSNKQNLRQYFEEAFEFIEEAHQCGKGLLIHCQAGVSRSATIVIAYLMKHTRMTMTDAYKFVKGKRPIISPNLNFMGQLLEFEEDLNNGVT
# T5 sequence (P23469 107-697): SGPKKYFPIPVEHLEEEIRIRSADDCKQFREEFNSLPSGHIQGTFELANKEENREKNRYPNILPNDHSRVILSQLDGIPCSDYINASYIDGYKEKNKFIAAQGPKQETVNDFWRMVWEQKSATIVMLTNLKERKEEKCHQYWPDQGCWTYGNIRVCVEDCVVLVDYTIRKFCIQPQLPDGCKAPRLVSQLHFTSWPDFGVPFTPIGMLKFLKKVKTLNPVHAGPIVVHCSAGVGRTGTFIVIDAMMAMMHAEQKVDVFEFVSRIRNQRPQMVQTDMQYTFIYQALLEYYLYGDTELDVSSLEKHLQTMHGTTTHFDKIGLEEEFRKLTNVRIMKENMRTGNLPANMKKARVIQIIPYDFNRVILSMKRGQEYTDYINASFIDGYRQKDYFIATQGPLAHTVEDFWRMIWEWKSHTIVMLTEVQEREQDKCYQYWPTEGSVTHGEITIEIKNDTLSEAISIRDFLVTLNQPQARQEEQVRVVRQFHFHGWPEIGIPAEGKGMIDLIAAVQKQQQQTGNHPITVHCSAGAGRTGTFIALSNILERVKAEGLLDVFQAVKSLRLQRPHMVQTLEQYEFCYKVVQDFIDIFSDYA
# T3 sequence (P54829 282-563): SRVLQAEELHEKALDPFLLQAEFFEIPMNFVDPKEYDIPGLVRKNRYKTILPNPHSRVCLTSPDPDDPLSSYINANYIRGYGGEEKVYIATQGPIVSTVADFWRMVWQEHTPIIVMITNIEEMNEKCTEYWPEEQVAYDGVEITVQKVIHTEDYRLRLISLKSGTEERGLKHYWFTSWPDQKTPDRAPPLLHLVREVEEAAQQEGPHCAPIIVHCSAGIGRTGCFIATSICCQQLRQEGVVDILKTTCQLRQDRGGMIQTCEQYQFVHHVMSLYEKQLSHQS
# T9 sequence (Q9Y2R2 1-294): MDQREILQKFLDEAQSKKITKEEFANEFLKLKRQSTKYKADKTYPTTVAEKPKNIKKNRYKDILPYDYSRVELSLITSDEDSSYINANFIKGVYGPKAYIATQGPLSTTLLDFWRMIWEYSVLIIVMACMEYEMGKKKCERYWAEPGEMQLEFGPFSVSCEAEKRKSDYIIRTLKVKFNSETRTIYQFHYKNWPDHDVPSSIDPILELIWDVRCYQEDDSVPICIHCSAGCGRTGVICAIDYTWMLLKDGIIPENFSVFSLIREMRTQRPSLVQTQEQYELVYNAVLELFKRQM
# T4 sequence (O60729 1-411): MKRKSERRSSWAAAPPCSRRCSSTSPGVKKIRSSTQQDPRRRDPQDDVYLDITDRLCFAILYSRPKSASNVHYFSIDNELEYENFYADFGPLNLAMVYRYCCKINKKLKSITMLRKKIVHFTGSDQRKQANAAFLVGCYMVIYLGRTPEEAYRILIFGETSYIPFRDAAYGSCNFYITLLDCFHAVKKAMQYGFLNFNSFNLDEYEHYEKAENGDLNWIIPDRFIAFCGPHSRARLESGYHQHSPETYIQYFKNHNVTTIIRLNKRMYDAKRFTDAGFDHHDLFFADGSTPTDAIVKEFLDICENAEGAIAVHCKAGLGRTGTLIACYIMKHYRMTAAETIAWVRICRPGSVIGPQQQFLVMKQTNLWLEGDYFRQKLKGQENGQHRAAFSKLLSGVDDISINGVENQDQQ
# T7 sequence (Q05209 5-304): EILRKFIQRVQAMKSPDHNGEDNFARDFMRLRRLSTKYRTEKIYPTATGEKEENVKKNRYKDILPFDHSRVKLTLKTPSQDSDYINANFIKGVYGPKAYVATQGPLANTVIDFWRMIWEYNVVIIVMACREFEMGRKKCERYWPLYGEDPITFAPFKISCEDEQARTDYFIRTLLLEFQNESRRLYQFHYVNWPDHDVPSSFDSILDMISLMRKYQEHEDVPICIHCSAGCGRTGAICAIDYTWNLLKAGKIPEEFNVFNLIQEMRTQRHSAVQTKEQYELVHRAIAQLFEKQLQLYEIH
# T8 sequence (P35236 22-360): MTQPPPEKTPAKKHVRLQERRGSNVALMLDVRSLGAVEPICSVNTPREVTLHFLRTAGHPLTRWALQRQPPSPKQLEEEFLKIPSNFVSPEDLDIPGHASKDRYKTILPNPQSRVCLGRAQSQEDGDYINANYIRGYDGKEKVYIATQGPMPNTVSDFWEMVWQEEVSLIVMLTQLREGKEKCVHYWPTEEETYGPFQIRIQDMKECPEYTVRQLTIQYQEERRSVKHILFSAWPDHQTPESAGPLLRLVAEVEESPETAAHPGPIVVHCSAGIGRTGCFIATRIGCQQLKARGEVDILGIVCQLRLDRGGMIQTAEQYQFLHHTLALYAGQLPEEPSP
# T1 sequence (P29350 245-543): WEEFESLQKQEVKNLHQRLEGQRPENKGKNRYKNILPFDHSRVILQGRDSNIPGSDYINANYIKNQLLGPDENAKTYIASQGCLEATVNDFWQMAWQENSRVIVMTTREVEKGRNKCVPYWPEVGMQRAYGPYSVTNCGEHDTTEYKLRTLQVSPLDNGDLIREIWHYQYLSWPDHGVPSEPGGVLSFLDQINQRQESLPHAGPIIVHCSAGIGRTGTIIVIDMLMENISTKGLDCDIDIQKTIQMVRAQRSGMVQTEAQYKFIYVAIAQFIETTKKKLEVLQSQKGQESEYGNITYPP
structure (smiles),measurement,setting,value
"CC(C)(O)CCOc1ccc2cc(O)c(N3CC(=O)NS3(=O)=O)c(F)c2c1 [Compound 182, 5-(1-Fluoro-3-hydroxy-7-(3-hydroxy-3-methylbutoxy)naphthalen-2-yl)−1,2,5-thiadiazolidin-3-one 1,1-dioxide]","repression of tumor growth, dosing every two days compared with every three days",AT3-OVA mammary tumors; 10 mg/kg i.v.,more pronounced
same,"AT3-OVA tumor growth, administration every three days","AT3-OVA mammary tumors; 10 mg/kg i.v., days 9-27, Supplementary Fig. 8",represses
same,growth of AT3-OVA mammary tumors,AT3-OVA mammary tumors; 10 mg/kg intravenously every 2 days or every 3 days,effectively repressed the growth
same,Tumour weight d21 (median),"AT3-OVA mammary tumors; AT-3-OVA, Figure 3A, column B, n=8","100.0, n=8"
same,"Tumour weights, individual mice","AT3-OVA mammary tumors; C57BL/6, CMP-182 10 mg, n=8, Figure 5B",126 and 340 and 344 and 76 and 85 and 190 and 183 and 281
same,"Tumour growth, individual mice","AT3-OVA mammary tumors; C57BL/6, CMP-182 10 mg, n=8, day 0 post injection, in mm2",38.86 and 38.76 and 36.96 and 20 and 19.89 and 39.65 and 32.33 and 44.53
same,"Tumour growth, individual mice","AT3-OVA mammary tumors; C57BL/6, CMP-182 10 mg, n=8, day 2 post injection, in mm2",46.62 and 45 and 45.75 and 21.2 and 22.26 and 46.15 and 36.4 and 52
same,"Tumour growth, individual mice","AT3-OVA mammary tumors; C57BL/6, CMP-182 10 mg, n=8, day 4 post injection, in mm2",40.6 and 37.95 and 45.6 and 22.4 and 21.42 and 37.21 and 29.5 and 55.61
same,"Tumour growth, individual mice","AT3-OVA mammary tumors; C57BL/6, CMP-182 10 mg, n=8, day 7 post injection, in mm2",35.1 and 40.02 and 49.4 and 25.2 and 27.54 and 44.85 and 32.5 and 53.6
same,"Tumour growth, individual mice","AT3-OVA mammary tumors; C57BL/6, CMP-182 10 mg, n=8, day 9 post injection, in mm2",40.2 and 41.76 and 56.44 and 28.35 and 33.04 and 52.56 and 37.95 and 65.25
same,"Tumour growth, individual mice","AT3-OVA mammary tumors; C57BL/6, CMP-182 10 mg, n=8, day 12 post injection, in mm2",40.8 and 47.74 and 66.43 and 30.15 and 33.63 and 55.5 and 42 and 70.2
same,"Tumour growth, individual mice","AT3-OVA mammary tumors; C57BL/6, CMP-182 10 mg, n=8, day 15 post injection, in mm2",42 and 55.44 and 75.75 and 31.5 and 34.22 and 60.84 and 45.26 and 76
same,Tumour size AT-3-OVA (group mean),"AT3-OVA mammary tumors; C57BL/6 n=8, time point 6, in mm2",21.8
same,Tumour size AT-3-OVA (group mean),"AT3-OVA mammary tumors; C57BL/6 n=8, time point 8, in mm2",21.97
same,Tumour size AT-3-OVA (group mean),"AT3-OVA mammary tumors; C57BL/6 n=8, time point 10, in mm2",23.3
same,Tumour size AT-3-OVA (group mean),"AT3-OVA mammary tumors; C57BL/6 n=8, time point 13, in mm2",25.76
same,Tumour size AT-3-OVA (group mean),"AT3-OVA mammary tumors; C57BL/6 n=8, time point 15, in mm2",29.09
same,Tumour size AT-3-OVA (group mean),"AT3-OVA mammary tumors; C57BL/6 n=8, time point 17, in mm2",31.79
same,Tumour size AT-3-OVA (group mean),"AT3-OVA mammary tumors; C57BL/6 n=8, time point 19, in mm2",33.9
same,Tumour size AT-3-OVA (group mean),"AT3-OVA mammary tumors; C57BL/6 n=8, time point 21, in mm2",36.99
same,Tumour size AT-3-OVA (group mean),"AT3-OVA mammary tumors; C57BL/6 n=8, time point 23, in mm2",41.18
same,"Tumour size AT-3-OVA, mean over all time points","AT3-OVA mammary tumors; C57BL/6 n=8, two-way RM ANOVA column mean, in mm2",29.53
same,"Tumour growth, single mice","AT3-OVA mammary tumors; day 6 post injection (first dose), 10 mg/kg i.v., in mm2",22.54 and 20.7 and 19.36 and 20.25 and 18.49 and 22.09 and 26.95 and 24
same,"Tumour growth, single mice","AT3-OVA mammary tumors; day 8 post injection, 10 mg/kg i.v., in mm2",22.08 and 20.7 and 20.68 and 20.91 and 19.78 and 21.15 and 25.97 and 24.48
same,"Tumour growth, single mice","AT3-OVA mammary tumors; day 10 post injection, 10 mg/kg i.v., in mm2",27.56 and 22.95 and 17.6 and 23.1 and 20.64 and 23.04 and 23.65 and 27.84
same,"Tumour growth, single mice","AT3-OVA mammary tumors; day 15 post injection, 10 mg/kg i.v., in mm2",37.95 and 25.76 and 21.12 and 24.36 and 20.64 and 28.62 and 35.75 and 38.5
same,"Tumour growth, single mice","AT3-OVA mammary tumors; day 23 post injection, 10 mg/kg i.v., in mm2",43.55 and 30 and 34.02 and 32.76 and 29.15 and 54.51 and 48.18 and 57.27
same,liver fibrosis (Picrosirius red),[1],no signs of liver fibrosis
same,"lymphocytic infiltrates in liver, lungs, salivary glands and colon",[1],did not observe any overt lymphocytic infiltrates
same,IC50,SHP-1,9.1 ± 0.4 µM
same,IC50,MKP5,> 20 µM
same,IC50,STEP,> 20 µM
same,IC50,CDC14B,5.2 ± 1.7 µM
same,IC50,PTPε,0.8 ± 0.1 µM
same,IC50,FAP-1,> 20 µM
same,IC50,PTP-PEST,> 20 µM
same,IC50,HePTP,> 20 µM
same,IC50,LYP,> 20 µM
